Experiments:
[1] = system: intestinal mucositis caused by 5-FU; test: intestinal mucositis model caused by 5-FU (weight, diarrhea, villus histology); assay type: in vivo, female Wistar mouse
Experimental: The compound c3 was tested in in vivo for evaluating its protection regarding intestinal mucositis caused by 5-FU. The mucositis model was developed in female Wistar mouse (180-200 g) and the animals were divided into 5 groups with 4 animals in each group: Group 1: Saline+Saline Group 2: Compound c3 (150 mg/kg)+saline Group 3: Saline+5-FU (50 mg/kg) Group 4: Compound c3 (50 mg/kg)+5-FU (50 mg/kg) Group 5: Compound c3 (150 mg/kg)+5-FU (50 mg/kg) The test compound was administrated via oral, 30 minutes before administrating the chemotherapeutic 5-FU that was administrated via intraperitoneal. This treatment was followed for 5 days with once a day administrations. In the 5th treatment day, the animals were euthanized using one inhalational anesthetic (isoflurane) and the initial portion of the intestine (corresponding to jejunum and ileus) was collected for myeloperoxidase analysis (MPO) and histological analysis of the tissue, as well blood collect for quantification analysis of the uridine in the plasma. The animals were also followed-up regarding weight loss and diarrhea.

[2] = molecular target: T1, Human Phosphorylase Uridine 1 (hUP1) (Homo sapiens, UniProt Q16831); test: hUP1 enzymatic assay, inhibition at 1 μM (UV absorbance of uridine at 280 nm); assay type: biochemical; conditions: 1 μM compound, 37° C.
Experimental: (§1) The enzymatic activity of the hUP1 is performed through the enzymatic essay using one spectrophotometer UV/visible where the absorbance reduction of uridine in 280 nm, for 1 min and at 37° C. was monitored.
For determining which inhibitors would be selected for determining the inhibition constant (Ki), one cut point of 1 μM was stipulated, where only those compounds that would inhibit more than 60% of the initial activity of the enzyme would be selected for this type of analysis (Table 1). From all compounds tested, 7 molecules had its inhibition above 60% with the concentration of 1 μM (Compounds c1, c2, c3, c4, c6, c12, and c13). All essays described on this patent application were performed for these compounds and for benzil acyclo uridine (BAU), in order to perform a direct comparison of the results achieved with the better in vitro inhibitor of the hUP1 described (standard).

[3] = molecular target: hUP1-R1P (Homo sapiens, UniProt Q16831); test: isothermal titration microcalorimetry (ITC), enzyme complexed with product ribose-1-phosphate; assay type: binding
Experimental: (§2) For determining the thermodynamic parameters (enthalpy variation—ΔH, entropy variation—ΔS, and free energy variation of Gibbs—ΔG) were performed compounds binding essays to the enzyme in different conditions: free enzyme, complexed enzyme with the substrate Pi, and the complexed enzyme with the product ribose-1-phosphate (R1P). For such analyses, it was used isothermal titration microcalorimetry (ITC) where the equipment monitors the difference of transferred heat, between the reference cell and the sample cell, when bindings are formed or broken during the binding process. The data analysis achieved was performed through the model One Set of Sites and the determination of ΔG and the dissociation constant (KD) were through the equations (IV) and (V) below, respectively: ΔG=ΔH−TΔS (IV) KD=1/Ka (V)

[4] = molecular target: T1, Human Phosphorylase Uridine 1 (hUP1); test: Ki and inhibition type from substrate saturation curves, double-reciprocal analysis; assay type: biochemical; conditions: for Inhibiting type for phosphate: substrate Pi; for Inhibition type for uridine: substrate uridine
Experimental: as §1
For determining Ki for the selected inhibitors, we performed saturation curves where the concentration of one of the substrates is fixed next to the Km and the concentration of another, varied until the saturation in fixed-varying concentrations of each one of the inhibitors.
(I) v=VA/[Ka(1+I/Kii)+A(1+Kis)] (II) v=VA/[A(1+I/Kis)+Ka] (III)

[5] = molecular target: hUP1 (Homo sapiens, UniProt Q16831); test: isothermal titration microcalorimetry (ITC), free enzyme; assay type: binding
Experimental: as §2

[6] = molecular target: hUP1-Pi (Homo sapiens, UniProt Q16831); test: isothermal titration microcalorimetry (ITC), enzyme complexed with substrate Pi; assay type: binding
Experimental: as §2

Sequence of hUP1 (Q16831 whole entry): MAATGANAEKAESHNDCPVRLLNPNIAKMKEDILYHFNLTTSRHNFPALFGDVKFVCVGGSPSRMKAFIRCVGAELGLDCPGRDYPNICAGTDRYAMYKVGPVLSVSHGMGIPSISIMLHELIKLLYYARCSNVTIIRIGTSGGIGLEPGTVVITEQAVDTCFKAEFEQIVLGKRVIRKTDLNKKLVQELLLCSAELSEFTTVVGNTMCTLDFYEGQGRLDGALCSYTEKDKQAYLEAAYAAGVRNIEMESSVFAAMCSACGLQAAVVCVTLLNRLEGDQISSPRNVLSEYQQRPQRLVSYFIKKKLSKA
Sequence of hUP1-Pi (Q16831 whole entry): as above
T1 sequence (Q16831 whole entry): as above
Sequence of hUP1-R1P (Q16831 whole entry): as above

SMILES | inhibition at 1 µM [2] [%] | Kd ([3]; hUP1-R1P 50 μM) [µM] | ΔG° ([3]; hUP1-R1P 50 μM) [kcal/mol] | ΔH° ([3]; hUP1-R1P 50 μM) [kcal/mol] | −TΔS (kcal/mol/deg) ([3]; hUP1-R1P 50 μM) [kcal/mol] | Kd ([3]; hUP1-R1P 150 μM) [µM] | ΔG° ([3]; hUP1-R1P 150 μM) [kcal/mol] | ΔH° ([3]; hUP1-R1P 150 μM) [kcal/mol] | −TΔS (kcal/mol/deg) ([3]; hUP1-R1P 150 μM) [kcal/mol] | Inhibiting type for phosphate [4] | Inhibition type for uridine [4] | Inhibition with 1 μM (%) [2] [%] | Kd [5] [µM] | ΔG° [5] [kcal/mol] | ΔH° [5] [kcal/mol] | −TΔS (kcal/mol/deg) [5] [kcal/mol/deg] | further results
O=c1[nH]cc(F)c(=O)[nH]1 [Compound 5-FU, 5-fluorouracil, reference compound] |  |  |  |  |  |  |  |  |  |  |  |  |  |  |  |  | diarrhea ([1]; 5-FU 50 mg/kg intraperitoneal, once a day, all groups that received the chemotherapeutic): developed severe diarrhea; weight loss ([1]; 5-FU 50 mg/kg intraperitoneal, once a day, with or without the compound, day 1 vs day 6): had a weight loss and this was significant; intestinal villus (histological analysis) ([1]; group that received only 5-FU, 50 mg/kg intraperitoneal): villus totally damaged
Cc1c(CN2CCCCC2)c(O)[nH]c(=O)c1C#N [Compound c5] | 49 |  |  |  |  |  |  |  |  |  |  |  |  |  |  |  | 
N#Cc1c(-c2ccccc2)cc(O)[nH]c1=O [Compound c7] | 42 |  |  |  |  |  |  |  |  |  |  |  |  |  |  |  | 
CCc1cc(O)[nH]c(=O)c1C#N [Compound c8] | 25 |  |  |  |  |  |  |  |  |  |  |  |  |  |  |  | 
CCN(CC)Cc1c(O)[nH]c(=O)c(C#N)c1C [Compound c9] | 25 |  |  |  |  |  |  |  |  |  |  |  |  |  |  |  | 
CCCN(CCC)Cc1c(O)[nH]c(=O)c(C#N)c1C [Compound c10] | 20 |  |  |  |  |  |  |  |  |  |  |  |  |  |  |  | 
Cc1c(Cc2ccccc2)c(O)[nH]c(=O)c1C#N [Compound c11] | 43 |  |  |  |  |  |  |  |  |  |  |  |  |  |  |  | 
O=c1[nH]cc(CNCCO)c(=O)[nH]1 [Compound c14] | 2 |  |  |  |  |  |  |  |  |  |  |  |  |  |  |  | 
Cc1c(CN(C)C)c(O)[nH]c(=O)c1C#N [c1] |  | 7.4 ± 0.381 | -7.2 ± 0.4 | -22 ± 0.4 | 14 ± 0.7 | 10 ± 1.32 | -7.0 ± 0.9 | -23 ± 0.1 | 16 ± 2.1 | Uncompetitive | Competitive | 81 | 4.2 ± 0.602 | -7.6 ± 1.1 | -6.7 ± 0.2 | 0.8 ± 0.1 | Kd [6]: 0.312 ± 0.073 µM; ΔG° [6]: -9.1 ± 2.1 kcal/mol; ΔH° [6]: -12 ± 0.2 kcal/mol; −TΔS (kcal/mol/deg) [6]: 2.6 ± 0.6 kcal/mol/deg
Cc1c(CNCCO)c(O)[nH]c(=O)c1C#N [c2] | > 60 | 2.3 ± 0.423 | -8.0 ± 1.5 | -17 ± 0.6 | 9.5 ± 1.7 | 3.8 ± 0.553 | -7.6 ± 1.1 | -30 ± 1.5 | 23 ± 3.3 | Uncompetitive | Competitive | 80 | 2 ± 0.221 | -8.0 ± 0.9 | -23 ± 0.5 | 14 ± 1.5 | Kd [6]: 0.151 ± 0.034 µM; ΔG° [6]: -9.5 ± 2.1 kcal/mol; ΔH° [6]: -16 ± 0.2 kcal/mol; −TΔS (kcal/mol/deg) [6]: 6.4 ± 1.4 kcal/mol/deg
Cc1c(CNCC(O)CO)c(O)[nH]c(=O)c1C#N (stereo not shown) [c4] | > 60 | 4.6 ± 0.344 | -7.5 ± 0.5 | -22 ± 0.5 | 14 ± 1.0 | 9.4 ± 1.04 | -7.1 ± 0.8 | -18 ± 0.8 | 11 ± 1.2 | Uncompetitive | Competitive | 78 | 20 ± 2.63 | -6.7 ± 0.9 | -22 ± 2.2 | 15 ± 2.0 | Kd [6]: 0.263 ± 0.026 µM; ΔG° [6]: -9.3 ± 0.9 kcal/mol; ΔH° [6]: -19 ± 0.1 kcal/mol; −TΔS (kcal/mol/deg) [6]: 10 ± 1.0 kcal/mol/deg
Cc1c(CNC(CO)CO)c(O)[nH]c(=O)c1C#N [c6] |  | 7 ± 0.661 | -7.3 ± 0.7 | -18 ± 0.4 | 10 ± 1.0 | 7 ± 2.12 | -7.3 ± 2.2 | -10 ± 1.0 | 3.3 ± 1.0 | Uncompetitive | Competitive | 82 | 5.3 ± 0.674 | -7.4 ± 1.0 |  | 16 ± 2.0 | Kd [6]: 0.502 ± 0.083 µM; ΔG° [6]: -9.0 ± 1.5 kcal/mol; ΔH° [6]: -14 ± 0.2 kcal/mol; −TΔS (kcal/mol/deg) [6]: 5.0 ± 0.8 kcal/mol/deg
N#Cc1ccc(O)[nH]c1=O [c12] | > 60 | 0.108 ± 0.018 | -9.8 ± 1.6 | -15 ± 0.1 | 5.7 ± 0.9 | 0.127 ± 0.048 | -9.7 ± 3.7 | -18 ± 0.5 | 8.5 ± 3.2 | Not Competitive | Not competitive | 67 | 2.9 ± 0.554 | -7.8 ± 1.5 | -9.6 ± 0.3 | 1.7 ± 0.3 | 
Cc1cc(O)[nH]c(=O)c1C#N [c13] |  | 1.3 ± 0.197 | -8.1 ± 1.2 | -27 ± 0.7 | 19 ± 2.9 | 1.3 ± 0.435 | -8.0 ± 2.7 | -35 ± 2.1 | 27 ± 9.1 | Not competitive | Not competitive | 62 | 12 ± 1.82 | -6.9 ± 1.0 | -8.7 ± 0.7 | 1.7 ± 0.2 | 
